The results in this text go back to patent US12030865B2, “Pesticidal mixtures comprising indazoles” (FMC Corporation, priority 2018, dated 2024).

Holding throughout (type): in vivo
For assay [1], the system named is green peach aphid (Myzus persicae (Sulzer)). Briefly: Test A: control of green peach aphid on pre-infested radish plant, spray. The following applies: 144 h, visually assessed after 6 days; for mortality at 50 ppm: sprayed at 50 ppm; for mortality at 250 ppm: sprayed at 250 ppm. As to the method: (§1) Test compounds were formulated using a solution containing 10% acetone, 90% water and 300 ppm X-77® Spreader Lo-Foam Formula non-ionic surfactant containing alkylarylpolyoxyethylene, free fatty acids, glycols and isopropanol (Loveland Industries, Inc. Greeley, Colorado, USA). The formulated compounds were applied in 1 mL of liquid through a SUJ2 atomizer nozzle with 1/8 JJ custom body (Spraying Systems Co. Wheaton, Illinois, USA) positioned 1.27 cm (0.5 inches) above the top of each test unit. Test compounds were sprayed at the rates indicated, and each test was replicated three times.
For evaluating control of green peach aphid (Myzus persicae (Sulzer)) through contact and/or systemic means, the test unit consisted of a small open container with a 12-15-day-old radish plant inside. This was pre-infested by placing on a leaf of the test plant 30-40 aphids on a piece of leaf excised from a culture plant (cut-leaf method). The aphids moved onto the test plant as the leaf piece desiccated. After pre-infestation, the soil of the test unit was covered with a layer of sand.
Test compounds were formulated and sprayed at 250 and/or 50 ppm. After spraying of the formulated test compound, each test unit was allowed to dry for 1 hour and then a black, screened cap was placed on top. The test units were held for 6 days in a growth chamber at 19-21° C. and 50-70% relative humidity. Each test unit was then visually assessed for insect mortality.

The subject of assay [2] is cotton melon aphid (Aphis gossypii (Glover)). The assay can be described thus: Test B: control of cotton melon aphid on pre-infested cotton plant, spray. The following applies: 144 h, sprayed at 50 ppm, visually assessed after 6 days. On the procedure:
as §1
For evaluating control of cotton melon aphid (Aphis gossypii (Glover)) through contact and/or systemic means, the test unit consisted of a small open container with a 6-7-day-old cotton plant inside. This was pre-infested with 30-40 insects on a piece of leaf according to the cut-leaf method, and the soil of the test unit was covered with a layer of sand.
Test compounds were formulated and sprayed at 250 and/or 50 ppm. After spraying, the test units were maintained in a growth chamber for 6 days at 19° C. and 70% relative humidity. Each test unit was then visually assessed for insect mortality.

Assay [3] concerns sweetpotato whitefly (Bemisia tabaci (Gennadius)). Briefly: Test C: control of sweetpotato whitefly on egg-infested cotton plant, spray. The following applies: 312 h, cotton plant with eggs, visually assessed after 13 days; for mortality at 250 ppm: sprayed at 250 ppm. As to the method: as §1
For evaluating control of the sweetpotato whitefly (Bemisia tabaci (Gennadius)) through contact and/or systemic means, the test unit consisted of a small open container with a 12-14-day-old cotton plant inside. Prior to the spray application, both cotyledons were removed from the plant, leaving one true leaf for the assay. Adult whiteflies were allowed to lay eggs on the plant and then were removed from the test unit. Cotton plants infested with at least 15 eggs were submitted to the test for spraying.
Test compounds were formulated and sprayed at 250 and/or 50 ppm. After spraying, the test units were allowed to dry for 1 hour. The cylinders were then removed, and the units were taken to a growth chamber and held for 13 days at 28° C. and 50-70% relative humidity. Each test unit was then visually assessed for insect mortality.

The subject of assay [4] is Western Flower Thrips (Frankliniellla occidentalis (Pergande)). Briefly: Test D: control of Western Flower Thrips on Soleil bean plant, spray. The following applies: adult thrips, held 6 days. As to the method:
as §1
For evaluating control of the Western Flower Thrips (Frankliniellla occidentalis (Pergande)) through contact and/or systemic means, the test unit consisted of a small open container with a 5-7-day-old Soleil bean plant inside.
Test compounds were formulated and sprayed at 250 and/or 50 ppm. After spraying, the test units were allowed to dry for 1 hour, and then 22-27 adult thrips were added to each unit. A black, screened cap was placed on top, and the test units were held for 6 days at 25° C. and 45-55% relative humidity.

Usually mortality stands for the share of the test organisms that died. High values mean a strong lethal effect, low ones a weak lethal effect. Consider `O=C(NC1(C(F)F)CC1)c1cccc2nn(-c3cccnc3)cc12` [Compound 1, N-[1-(difluoromethyl)cyclopropyl]-2-(3-pyridinyl)-2H-indazole-4-carboxamide], for which the mortality at 50 ppm was at least 80% in assay [1], at least 80% in assay [2] and at least 50% in assay [3] (sprayed at 50 ppm). In addition, the mortality at 250 ppm in assay [1] was at least 80%; in assay [3], at least 50%. For the same compound, the “control efficacy (30% or less plant damage and/or 100% mortality)” value in assay [4] (sprayed at 50 ppm) and in assay [4] (sprayed at 250 ppm) was “very good to excellent levels of control efficacy” each time.

Regarding `CSCC(C)(C)NC(=O)c1ccc(F)c2nn(-c3cccnc3)cc12` [Compound 2a, N-[1,1-dimethyl-2-(methylthio)ethyl]-7-fluoro-2-(3-pyridinyl)-2H-indazole-4-carboxamide], the mortality at 50 ppm in assay [1] and in assay [2] was at least 80% throughout. In assay [1], the mortality at 250 ppm is at least 80%. Besides, the “control efficacy (30% or less plant damage and/or 100% mortality)” value in assay [4] (sprayed at 50 ppm) and in assay [4] (sprayed at 250 ppm) was “very good to excellent levels of control efficacy” in each case.

Take `C[S+]([O-])CC(C)(C)NC(=O)c1ccc(F)c2nn(-c3cccnc3)cc12` (stereo not shown) [Compound 2b, N-[1,1-dimethyl-2-(methylsulfinyl)ethyl]-7-fluoro-2-(3-pyridinyl)-2H indazole-4-carboxamide]: the mortality at 50 ppm in assay [1] and in assay [2] was at least 80% each time. Also, the mortality at 250 ppm in assay [3] was at least 50%. The “control efficacy (30% or less plant damage and/or 100% mortality)” value in assay [4] (sprayed at 50 ppm) and in assay [4] (sprayed at 250 ppm) was “very good to excellent levels of control efficacy” each time.

As to `CC(C)(CS(C)(=O)=O)NC(=O)c1ccc(F)c2nn(-c3cccnc3)cc12` [Compound 2c, N-[1,1-dimethyl-2-(methylsulfonyl)ethyl]-7-fluoro-2-(3-pyridinyl)-2H indazole-4-carboxamide], the mortality at 50 ppm in assay [1] and in assay [2] was at least 80% throughout.
